Measured values reported in patent US8008000B2, “Viral variants detection and application” (priority 2003, dated 2011).
“Also recorded” adds a separate entry of the source. Counter-ions that a name gives are not always drawn.

Tests used:
[1] = system: HBV; experiment: Response of Patient E (chronic HBV infection) to treatment; assay type: in vivo, Hepatitis B virus; conditions: previously treated with lamivudine
From the text: Reference herein to “decreased” or “reduced” in relation to sensitivity to ADV and/or LMV and/or FTC and/or TFV includes and encompasses a complete or substantial resistance to the nucleoside or nucleotide analog or other anti-HBV agents as well as partial resistance and includes a replication rate or replication efficiency which is more than a wild-type in the presence of a nucleoside or nucleotide analog or other anti-HBV agents. In one aspects this is conveniently measured by an increase in viral load during treatment, or alternatively, there is no substantial decrease in HBV DNA viral load from pretreatment HBV DNA levels during treatment (i.e., non-response to treatment).

[2] = system: HBV; experiment: HBV viral load in Patient A during ADV therapy; assay type: in vivo, Hepatitis B virus; conditions: Patient A on ADV treatment
From the text: Patient A: During ADV treatment, unique HBV mutations were detected by sequencing (Table 4). This includes the unique mutation at rtT38K, and rtA181V. A number of other changes were also detected in the polymerase rtR55H and in the overlapping envelope gene (Table 4, FIGS. 4, 5 and 6). The changes in the HBsAg include sQ30K, sE44G, sA47T, sI126T, sA159V and sL173F. These unique changes were compared to reference sequences from each of the seven genotypes A-G as well as a consensus sequence from pretreatment samples to determine unique changes
Hepatitis B surface antigen (HBsAg), hepatitis B e antigen (HBeAg), anti-HBe and hepatitis B core antigen (HBcAg) specific IgG and IgM were measured using commercially available immunoassays (Abbott Laboratories, North Chicago, Ill., USA). Hepatitis B viral DNA levels were measured using a capture hybridization assay according to the manufacturer's directions (Digene Hybrid Capture II, Digene Diagnostics Inc., Beltsville, Md.). The manufacturers stated cut-off for detecting HBV viremia in clinical specimens was 0.7×10^6 copies/ml or 2.5 pg/ml, [Hendricks et al., Am J Clin Pathol 104: 537-46, 1995]. HBV DNA levels can also be quantitated using other commercial kits such as Cobas amplification HBV monitor kit (Roche).

[3] = system: HBV; conditions: 30 mg daily dose, over 12 weeks, phase II studies; cited from earlier work

Row | Compound | response to treatment [1] | HBV viral load ([2]; 8 Jul. 2003) | HBV viral load ([2]; 14 Jan. 2003) | HBV viral load ([2]; 22 Oct. 2002) | mean decrease in viremia [3]
1 | CC(C)(C)C(=O)OCOP(=O)(COCCn1cnc2c(N)ncnc21)OCOC(=O)C(C)(C)C [ADV, adefovir dipivoxil] | did not respond; also recorded: nonresponder | 7.92E+07 | 1.21E+09 | 8.77E+06 | 4 log10
2 | CC(C)OC(=O)OCOP(=O)(CO[C@H](C)Cn1cnc2c(N)ncnc21)OCOC(=O)OC(C)C [TFV, tenofovir disoproxil fumarate] | responded | – | – | – | –
